Measurements published in BindingDB's records for doi:10.3109/14756366.2011.604852 (Erzincan University, 2012).

Legend:
Carbonic anhydrase 2 = Carbonic anhydrase 2 (Homo sapiens, UniProt P00918); test: Esterase Activity Assay; details: pH 7.4; 25 °C
Description: (§1) CA activity was assayed according to method of Verpoorte et al. [Verpoorte et al., J. Biol. Chem., 242:4221-4229] described previously by Innocenti et al. [Innocenti et al., Bioorg. Med. Chem., 18:2159-2164; Innocenti et al., Bioorg. Med. Chem. Lett., 20:5050-5053] CA activity was determined by following thechange in absorbance at 348 nm of 4-nitrophenylacetate (NPA) to 4-nitrophenylate ion over a period of 3 min at 25°C using a spectrophotometer (CHEBIOS UV-VIS). The enzymatic reaction, in a total volume of 3.0 mL, contained 1.4 mL 0.05 M Tris-SO4 buffer (pH 7.4), 1 mL, 3 mM 4-nitrophenylacetate, 0.5 mL H2O and 0.1 mL enzyme solution. A reference measurement was obtained by preparing the same cuvette without enzyme solution. The inhibitory effects of ampicillin sulfate, ceftriaxone, ceftizoxime, ranitidine were examined. All compounds were tested in triplicate at each concentration used. Different inhibitor concentrations were used. HCA-I enzyme activities were measured for ceftriaxone (0.003-0.033 mM), ceftizoxime (0.017-0.096 mM), ranitidine (0.026-0.053 mM) at cuvette concentrations and HCAII enzyme activities were measured for ampicillin sulfate (0.038-0.095 mM), ceftriaxone (0.003-0.021 mM), ceftizoxime (0.026-0.061 mM) and ranitidine (0.032-0.058 mM) at cuvette concentrations.

Carbonic anhydrase 1 = Carbonic anhydrase 1 (Homo sapiens, UniProt P00915); test: Esterase Activity Assay; details: pH 7.4; 25 °C
Sequence of Carbonic anhydrase 1 (P00915 whole entry): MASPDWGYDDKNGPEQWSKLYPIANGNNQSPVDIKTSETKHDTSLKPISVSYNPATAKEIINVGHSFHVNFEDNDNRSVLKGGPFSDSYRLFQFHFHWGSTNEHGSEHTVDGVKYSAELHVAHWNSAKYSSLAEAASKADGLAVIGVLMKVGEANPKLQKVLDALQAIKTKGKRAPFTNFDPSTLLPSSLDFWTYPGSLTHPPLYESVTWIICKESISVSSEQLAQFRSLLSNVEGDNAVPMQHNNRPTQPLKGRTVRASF
Description: as §1

| IC50 (Carbonic anhydrase 2) [µM] | Ki (Carbonic anhydrase 2) [µM] | IC50 (Carbonic anhydrase 1) [µM] | Ki (Carbonic anhydrase 1) [µM] | Structure (SMILES) |
| --- | --- | --- | --- | --- |
| 21 | 15.8 | 27.1 | 28.5 | CO/N=C(\C(=O)N[C@@H]1C(=O)N2C(C(=O)O)=C(CSc3nc(=O)c(=O)[nH]n3C)CS[C@H]12)c1csc(N)n1 [(6R,7R)-7-{2-(2-Amino-thiazol-4-yl)-2-[(Z)-methoxyimino]-acetylamino}-3-(2-methyl-5,6-dioxo-1,2,5,6-tetrahydro-[1,2,4]triazin-3-ylsulfanylmethyl)-8-oxo-5-thia-1-aza-bicyclo[4.2.0]oct-2-ene-2-carboxylic acid] |
| 56.8 | 83 |  |  | CC1(C)S[C@@H]2[C@H](NC(=O)[C@H](N)c3ccccc3)C(=O)N2[C@H]1C(=O)O [AY-6108] |
| 79.1 | 51.8 | 79.4 | 86.1 | CO/N=C(\C(=O)N[C@@H]1C(=O)N2C(C(=O)O)=CCS[C@H]12)c1csc(N)n1 [Ceftizoxime] |
| 66.1 | 29.7 | 55.5 | 54.7 | CN/C(=C\[N+](=O)[O-])NCCSCc1ccc(CN(C)C)o1 [Ranitidine] |
